Values after ≈ are worked out from the molar mass of the structure shown.
How the values were obtained:
[1] = test system: Mycobacterium tuberculosis H37Rv (ATCC: 25177); experiment: Resazurin Microplate Assay (REMA), anti-tubercular activity against H37Rv; format: cell-based; conditions: 192 h, read-out: Anti-tubercular activity (MIC) H37Rv

## O=c1[nH]c(=O)c2c(-c3c[nH]c4ccccc34)nc(=S)[nH]c2[nH]1 [Compound 4a, 5-(1H-Indol-3-yl)-7-thioxo-7,8-dihydropyrimido[4,5-d]pyrimidine-2,4(1H,3H)-dione]
[1]
  MIC: 4 µg/mL (≈ 12.8 µM)
other
  melting point: 114 to 116 °C

## O=c1[nH]c(=S)[nH]c2[nH]c(=S)nc(-c3c[nH]c4ccccc34)c12 [Compound 4b, 5-(1H-Indol-3-yl)-2,7-dithioxo-2,3,7,8-tetrahydropyrimido[4,5-d]pyrimidin-4(1H)-one]
[1]
  MIC: 2 µg/mL (≈ 6.11 µM)
other
  melting point: 188 to 190 °C

## Cn1c(=O)c2c(-c3c[nH]c4ccccc34)nc(=S)[nH]c2n(C)c1=O [Compound 4c, 5-(1H-Indol-3-yl)-1,3-dimethyl-7-thioxo-7,8-dihydropyrimido[4,5-d]pyrimidine-2,4(1H,3H)-dione]
[1]
  MIC: 1 µg/mL (≈ 2.95 µM)
other
  melting point: 258 to 260 °C
